From US6514989B1, “Aromatic and heteroaromatic substituted 1,2,4-triazolo pyridine derivatives” (Hoffmann-La Roche Inc., priority 2001, dated 2003) come the findings set out here.

The target in assay [1] is T1, human adenosine A2a receptor (Homo sapiens, UniProt P29274).
T1 construct: expressed in transfected cells; host or cells: CHO cells, semliki forest virus expression system; membrane preparation
The assay can be described thus: Human adenosine A2a receptor radioligand binding assay ([125I]-AB-MECA, CHO cell membranes). The note with it: for Ki: recombinant human A2a receptor expressed in CHO cells, Ki from IC50 by Cheng-Prussoff equation, read-out: hA2a Ki; for Selectivity A1/A2a: ratio obtained by dividing KiHA1 by KiHA2A. On the procedure:
Human Adenosine A2a Receptor
The gene encoding human adenosine A2a receptor was recombinantly introduced and expressed in chinese hamster ovary (CHO) cells using the semliki forest virus expression system. Cells were harvested, washed twice by centrifugation, homogenized and again washed by centrifugation. The final washed membrane pellet was suspended in a Tris (50 mM) buffer containing 120 mM NaCl, 5 mM KCl, 2 mM CaCl2 and 10 mM MgCl2 (pH 7.4) (buffer A). The [^125I]-AB-MECA ([N(6)-(4-amino-3-iodobenzyl)-5′-N-methylcarbamoyl-adenosine]; 0.05 nM) binding assay was carried out in 96-well a plates in the presence of 20 μg of membrane protein and 0.1 U adenosine deaminase in a final volume of […] of buffer A. Non-specific binding was defined using xanthine amine congener (XAC; 2 μM). Compounds were tested at 10 concentrations from 10 μM-0.3 nM. All assays were conducted in duplicate and repeated at least two times. Assay plates were incubated for 1 hour at room temperature before filtration through Whatman Unifilter GF/C 96-well filter plates (preincubated with 0.3% polyethyleneimine). Filters were washed 3 times with 0.3 ml of cold (4° C.) Tris (50 mM)—NaC […]
[…] 1 (120 mM) buffer (pH 7.4). Microscint 40 scintillation fluid (50 μl) was added to each well and the wells sealed. After gentle shaking for 20 min, plates were counted on a Packard Topcount scintillation counter. IC50 values were calculated using a non-linear curve fitting program and Ki values calculated using the Cheng-Prussoff equation.
(§1) In accordance with the invention, it has been shown that compounds of formula I have a high affinity toward the A2A receptor. In Table I below specific values of prepared compounds are described, Values of KiHA2A and KiHA1 are shown in Table I for compounds of formula 1. A low Ki value is indicative of a particular compound's high affinity toward a particular receptor and conversely a higher Ki value is indicative of a lower affinity for that compound toward a particular receptor. […] Generally speaking, compounds that have a higher HA1/HA2A ratio are able to give a substantially complete blockade of the HA2A receptor without substantially affecting the A1 receptor.

Assay [2] has as its target T2, human adenosine A1 receptor (Homo sapiens, UniProt P30542).
T2 construct: expressed in transfected cells; host or cells: CHO cells, semliki forest virus expression system; membrane preparation
T2 sequence (P30542 1-326): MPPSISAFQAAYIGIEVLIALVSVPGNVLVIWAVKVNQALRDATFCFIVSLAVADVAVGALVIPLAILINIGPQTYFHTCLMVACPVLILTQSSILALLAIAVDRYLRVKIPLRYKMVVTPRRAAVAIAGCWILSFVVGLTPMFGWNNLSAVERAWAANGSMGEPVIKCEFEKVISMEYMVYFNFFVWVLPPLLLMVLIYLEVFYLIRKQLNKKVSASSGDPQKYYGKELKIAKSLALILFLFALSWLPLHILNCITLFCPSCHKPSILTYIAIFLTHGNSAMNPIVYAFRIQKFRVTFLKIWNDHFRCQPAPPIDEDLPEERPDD
Briefly: Human adenosine A1 receptor radioligand binding assay ([3H]-DPCPX, SPA, CHO cell membranes). The conditions noted are these: recombinant human A1 receptor expressed in CHO cells; [3H]-DPCPX 0.6 nM; Ki from IC50 by Cheng-Prussoff equation; read-out: hA1 Ki. On the procedure: Human Adenosine A^1 Receptor
The gene encoding human adenosinie A1 receptor was recombinantly introduced and expressed in chinese hamster ovary (CHO) cells using the semliki forest virus expression system. Cells were harvested, washed twice by centrifugation, homogenized and again washed by centrifugation. The final washed membrane pellet was suspended in a Tris (50 mM) buffer containing 120 mM NaCl, 5 mM KCl, 2 mM CaCl2 and 10 mM MgCl2 (pH 7.4) (buffer A). The [^3H]-DPCPX (([propyl-3H]8-cyclopentyl-1,3-dipropyxanthine); 0.6 nM) binding assay was carried out in 96-well plates in the presence of 2.5 μg of membrane protein, 0.5 mg of Ysi-poly-1-lysine SPA beads and 0.1 U adenosine deaminase in a final volume of 200 μl of buffer A. Non-specific binding was defined using xanthine amine congener (XAC; 2 μM). Compounds were tested at 10 concentrations from 10 μM-0.3 nM. All assays were conducted in duplicate and repeated at least two times. Assay plates were incubated for 1 hour at room temperature before centrifugation and then bound ligand determined using a Packard Topcount scintillation counter. IC50 values were calculated using a non-linear curve fitting program and Ki values calculated using the Cheng-Prussoff equation.
as §1

T1 sequence (P29274 whole entry): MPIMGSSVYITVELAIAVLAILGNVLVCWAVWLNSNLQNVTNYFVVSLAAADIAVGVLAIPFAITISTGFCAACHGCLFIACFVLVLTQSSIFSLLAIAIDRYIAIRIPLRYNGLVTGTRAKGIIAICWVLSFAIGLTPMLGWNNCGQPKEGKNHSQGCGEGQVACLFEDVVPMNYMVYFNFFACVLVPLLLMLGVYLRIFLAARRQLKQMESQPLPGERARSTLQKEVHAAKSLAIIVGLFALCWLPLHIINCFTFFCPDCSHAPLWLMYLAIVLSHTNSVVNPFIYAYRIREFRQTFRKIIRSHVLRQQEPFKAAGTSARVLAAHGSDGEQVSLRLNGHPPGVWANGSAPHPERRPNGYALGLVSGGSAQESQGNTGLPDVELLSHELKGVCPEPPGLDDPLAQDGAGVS

In the case of “5-Methyl-thiophene-2-carboxylic acid[8-methoxy-5-(4-vinyl-phenyl)-[1,2,4]triazolo[1,5-a]pyridin-2-yl]-amide [Example 44]”, the Ki in assay [1] came to 0.246 µM.
With `COc1ccc(-c2cccs2)n2nc(NC(=O)c3ccc(Br)cc3)nc12` [Example 2, 4-Bromo-N-(8-methoxy-5-thiophen-2-yl-[1,2,4]triazolo[1,5-a]pyridin-2-yl)-benzamide], the Ki in assay [2] is 2.39 µM. Also, in assay [1], the “Selectivity A1/A2a” value was 37.6 and the Ki stood at 0.0636 µM.
Consider `COc1ccc(-c2ccccc2)n2nc(NC(=O)c3cccc(F)c3)nc12` [Example 3, 3-Fluoro-N-(8-methoxy-5-phenyl-[1,2,4]triazolo[1,5-a]pyridin-2-yl)-benzamide], for which, in assay [2], the Ki amounted to 2.03 µM. Besides, in assay [1], the “Selectivity A1/A2a” value was determined as 11.6 and the inhibition constant Ki turned out to be 0.176 µM.
With `COc1ccc(-c2ccccc2)n2nc(NC(=O)c3ccc(F)cc3)nc12` [Example 4, 4-Fluoro-N-(8-methoxy-5-phenyl-[1,2,4]triazolo[1,5-a]pyridin-2-yl)-benzamide], the Ki in assay [2] was found to be 2.24 µM; in assay [1] it was 0.114 µM. Moreover, in assay [1], the “Selectivity A1/A2a” value worked out at 19.6.
`COc1ccc(-c2ccccc2)n2nc(NC(=O)c3ccccc3Cl)nc12` [Example 5, 2-Chloro-N-(8-methoxy-5-phenyl-[1,2,4]triazolo[1,5-a]pyridin-2-yl)-benzamide]: the Ki came to 1.87 µM in assay [2] and 0.258 µM in assay [1]. Also, in assay [1], the “Selectivity A1/A2a” value came out at 7.3.
The matching figures for `COc1ccc(-c2ccccc2)n2nc(NC(=O)c3cccc(Cl)c3)nc12` [Example 6, 3-Chloro-N-(8-methoxy-5-phenyl-[1,2,4]triazolo[1,5-a]pyridin-2-yl)-benzamide]: 2.87 µM, 0.181 µM and 15.8.
In the case of `COc1ccc(-c2ccccc2)n2nc(NC(=O)c3ccccc3F)nc12` [Example 21, 2-Fluoro-N-(8-methoxy-5-phenyl-[1,2,4]triazolo[1,5-a]pyridin-2-yl)-benzamide], the Ki in assay [1] worked out at 0.384 µM.
On the same count and under the same terms, with `COc1ccc(-c2ccccc2)n2nc(NC(=O)c3ccccc3Br)nc12` [Example 22, 2-Bromo-N-(8-methoxy-5-phenyl-[1,2,4]triazolo[1,5-a]pyridin-2-yl)-benzamide] the figure was 0.266 µM; with `COc1ccc(-c2ccccc2Cl)n2nc(NC(=O)c3ccc(C)s3)nc12` [Example 36, 5-Methyl-thiophene-2-carboxylic acid [5-(2-chloro-phenyl)-8-methoxy-[1,2,4]triazolo[1,5-a]pyridin-2-yl]-amide], 0.527 µM; with `COc1ccc(-c2ccccc2C)n2nc(NC(=O)c3ccc(C)s3)nc12` [Example 37, 5-Methyl-thiophene-2-carboxylic acid (8-methoxy-5-o-tolyl-[1,2,4]triazolo[1,5-a]pyridin-2-yl)-amide], 0.938 µM.
On to `COc1ccc(-c2cccc(C)c2)n2nc(NC(=O)c3ccc(C)s3)nc12` [Example 38, 5-Methyl-thiophene-2-carboxylic acid (8-methoxy-5-m-tolyl [1,2,4]triazolo[1,5-a]pyridin-2-yl)-amide], for which the Ki in assay [1] amounted to 0.277 µM.
Same read-out and setting: with `COc1ccc(-c2ccc(C)cc2)n2nc(NC(=O)c3ccc(C)s3)nc12` [Example 39, 5-Methyl-thiophene-2-carboxylic acid (8-methoxy-5-p-tolyl-[1,2,4]triazolo[1,5-a]pyridin-2-yl)-amide] the figure was 0.451 µM.
The same measure, in the same setting: with `COc1ccc(-c2cccc(C(F)(F)F)c2)n2nc(NC(=O)c3ccc(C)s3)nc12` [Example 40, 5-Methyl-thiophene-2-carboxylic acid [8-methoxy-5-(3-trifluoromethyl-phenyl)-[1,2,4]triazolo[1,5-a]pyridin-2-yl]-amide] the figure was 0.547 µM.
On the same count and under the same terms, the same measure for `COc1ccc(-c2cccc(NC(C)=O)c2)n2nc(NC(=O)c3ccc(C)s3)nc12` [Example 41, 5-Methyl-thiophene-2-carboxylic acid [5-(3-acetylamino-phenyl)-8-methoxy-[1,2,4]triazolo[1,5-a]pyridin-2-yl]-amide]: 0.254 µM; for `COc1ccc(-c2ccc(SC)cc2)n2nc(NC(=O)c3ccc(C)s3)nc12` [Example 42, 5-Methyl-thiophene-2-carboxylic acid [8-methoxy-5-(4-methylsulfanyl-phenyl)-[1,2,4]triazolo[1,5-a]pyridin-2-yl]-amide]: 0.287 µM; for `COc1ccc(-c2cccc(C(C)=O)c2)n2nc(NC(=O)c3ccc(C)s3)nc12` [Example 43, 5-Methyl-thiophene-2-carboxylic acid [5-(3-acetyl-phenyl)-8-methoxy-[1,2,4]triazolo[1,5-a]pyridin-2-yl]-amide]: 0.618 µM.
Take `COc1ccc(-c2ccc3[nH]ccc3c2)n2nc(NC(=O)c3ccc(C)s3)nc12` [Example 45, 5-Methyl-thiophene-2-carboxylic acid [5-(1H-indol-5-yl)-8-methoxy-[1,2,4]triazolo[1,5-a]pyridin-2-yl]-amide]: the Ki in assay [1] was determined as 0.852 µM.
Same read-out and setting: the same measure for `CCOC(=O)c1cccc(-c2ccc(OC)c3nc(NC(=O)c4ccc(C)s4)nn23)c1` [Example 46, 3-{8-Methoxy-2-[(5-methyl-thiophene-2-carbonyl)-amino]-[1,2,4]triazolo[1,5-a]pyridin-5-yl}-benzoic acid ethyl ester]: 0.332 µM.
On the same count and under the same terms, the same measure for `COc1ccc(-c2cccc(Cl)c2)n2nc(NC(=O)c3ccc(F)cc3)nc12` [Example 47, N-[5-(3-Chloro-phenyl)-8-methoxy-[1,2,4]triazolo[1,5-a]pyridin-2-yl]-4-fluoro-benzamide]: 0.269 µM; for `COc1ccc(-c2ccc(Cl)cc2)n2nc(NC(=O)c3ccc(F)cc3)nc12` [Example 48, N-[5-(4-Chloro-phenyl)-8-methoxy-[1,2,4]triazolo[1,5-a]pyridin-2-yl]-4-fluoro-benzamide]: 0.624 µM.
In the case of `COc1ccc(-c2ccc(OC)c3nc(NC(=O)c4ccc(F)cc4)nn23)cc1` [Example 49, 4-Fluoro-N-[8-methoxy-5-(4-methoxy-phenyl)-[1,2,4]triazolo[1,5-a]pyridin-2-yl]-benzamide], the Ki in assay [1] turned out to be 0.346 µM.
The same measure, in the same setting: the same measure for `COc1ccc(-c2ccc(SC)cc2)n2nc(NC(=O)c3ccc(F)cc3)nc12` [Example 50, 4-Fluoro-N-[8-methoxy-5-(4-methylsulfanyl-phenyl)-[1,2,4]triazolo[1,5-a]pyridin-2-yl]-benzamide]: 0.855 µM; for `CCOC(=O)c1cccc(-c2ccc(OC)c3nc(NC(=O)c4ccc(F)cc4)nn23)c1` [Example 51, 3-[2-(4-Fluoro-benzoylamino)-8-methoxy-[1,2,4]triazolo[1,5-a]pyridin-5-yl]-benzoic acid ethyl ester]: 0.48 µM.
